Columns and labels:
tubulin [1] = experiment: SPOT membrane peptide array, tubulin binding to immobilized Gsα-derived peptides; design: species or system Ovine; details: equimolar Gsα (150 nM), 37° C., 1 hour; SPOT membrane 1
Text: Peptides were synthesized on to a cellulose membrane with PEG spacer (8×12 cm^2) (AIMS Scientific Products, Braunschweig, Germany) via the C-terminal amino acid in sequential spots by the use of a SPOT synthesis kit (SIGMA genosys, St. Louis, Mo.) (Frank, J. Immunol. Methods 267: 13-26, 2002; Frank, Tetrahedron 48: 9217-9232, 1992). The peptides corresponded to the amino acid sequence of Gsα (Genbank accession number P04895, homo sapiens, Gsα long form; SEQ ID NO: 15), which was divided into overlapping peptides (12 amino acids in length with 7 amino acid overlap between sequential peptide, 73 total spots). Spot 1 corresponded to amino acids 1-12 and Spot 2 corresponded to residues 6-17 in the primary amino acid sequence (SEQ ID NO: 15), etc. […]
Ovine brain tubulin was prepared as previously described (Shelanski et al., Proc. Natl. Acad. Sci. USA. 70: 765-768, 1973). […] Purity of the prepared tubulin, as determined by SDS gel electrophoresis, was always greater than 95%. […] Protein concentrations were determined by Coomasie Blue binding (BioRad Protein Assay) with Bovine Serum Albumin as a standard (Bradford, Anal. Biochem. 72: 248-254, 1976). […]

tubulin [2] = details: cited from earlier work

effect of prior incubation of tubulin with Gsα on tubulin binding to the immobilized peptides (tubulin [1]): prevented tubulin from binding
Substance: Gsα: stimulatory G protein α subunit of adenylyl cyclase
binding to tubulin (in words) (tubulin [2]): bind with a high affinity
Kd (tubulin [2]; read-out: KD of tubulin binding): ~130 nM
